In patent US20050032784A1, “Combination drug therapy for treating hypertension” (University of Florida Research Foundation, Inc., priority 2003, published 2005):

Tests used:
[1] = tested on: CAD patients with hypertension; experiment: INVEST trial: new diagnosis of diabetes; assay type: in vivo; conditions: for HR of developing diabetes: vs NCAS not taking trandolapril or hydrochlorothiazide; for Effect of add-on medication on risk of diabetes: preliminary analyses adjusted for 5 baseline covariates and average daily dose
Excerpt: The primary outcome was the first occurrence of death (all-cause), nonfatal MI, or nonfatal stroke by intention-to-treat analysis. The MI and stroke definitions are detailed on the INVEST Web site. These 3 components individually were the main secondary outcomes. Additional outcomes included time to most serious event (ranked from death as most serious, to MI, to stroke as least serious), cardiovascular death (definite or presumed), angina, cardiovascular hospitalizations, blood pressure control, cancer, Alzheimer disease, Parkinson disease, and gastrointestinal tract bleeding. Shortly after the study started, new information became available on the potential for ACE inhibitors to prevent or delay the onset of diabetes. Accordingly, at the recommendation of the independent data safety and monitoring committee, new diagnosis of diabetes was added as an outcome early in the recruitment phase of the study.
Of the 8098 CAS patients without diabetes at entry, 569 (7.03%) were diagnosed as having diabetes during follow-up. Of the 8078 NCAS patients without diabetes at entry, 665 (8.23%) were diagnosed as having diabetes during follow-up (RR, 0.85; 95% CI, 0.77-0.95). Patients in the CAS group were also less likely to die or develop diabetes compared with patients in the NCAS group (1050 [12.97%] vs 1177 [14.57%]; RR, 0.89; 95% CI, 0.82-0.96) and less likely to have an event in the primary outcome cluster or develop diabetes (1185 [14.63%] vs 1313 [16.25%]; RR, 0.90; 95% CI, 0.84-0.97). To explore possible explanations for reduced risk of diabetes, we conducted preliminary analyses adjusting for the 5 pre-specified baseline covariates (age, race, sex, prior MI, and prior heart failure) and included factors for average daily dose of add-on medication (trandolapril and/or hydrochlorothiazide). […] A 2-mg dose of trandolapril was associated with a HR of 0.86 (95% CI, 0.74-1.00) and a 4-mg dose was associated with a HR of 0.77 (95% CI, 0.62-0.96). In the NCAS group, a 2-mg dose of trandolapril was associated with a HR of 0.99 (95% CI, 0.90-1.08) and a 4-mg dose was associated with a HR of 0.98 (95% CI, 0.82-1.18). […] Compared with those in the NCAS group not taking either trandolapril or hydrochlorothiazide, the addition of 12.5 mg of hydrochlorothiazide was associated with a HR of 1.17 (95% CI, 1.09-1.25) and 25 mg of hydrochlorothiazide was associated with a HR of 1.36 (95% CI, 1.18-1.57).

[2] = tested on: hypertensive patients randomized to the calcium antagonist strategy; experiment: INVEST subanalysis: BP reduction by addition of HCTZ to verapamil SR/trandolapril; assay type: in vivo
Procedure: Subanalysis Design: INVEST afforded an opportunity to analyze unique and specific combinations of antihypertensive drugs due to the data accumulated for prescription date, drug, regimen, and dose. One subanalysis was performed to evaluate the incremental benefit of BP reduction by the addition of HCTZ to various dose combinations of verapamil SR and trandolapril in patients randomized to the calcium antagonist strategy. […]
Patients who received the verapamil SR/trandolapril combination as their first randomized drug prescription in INVEST, and who received no other drug prescription or gap in medication until their first HCTZ prescription added to the initial verapamil SR/trandolapril combination dose, were selected for this subgroup analysis. […] Summary statistics for change from baseline for SBP and DBP to the last observation at each dose level for both the verapamil SR/trandolapril dual combination and the verapamil SR/trandolapril/HCTZ triple combination were analyzed. […] In this subanalysis the incremental effect of HCTZ on BP reduction was evaluated for any dose of HCTZ.

[3] = Group 1, added to verapamil SR/trandolapril 180/2 mg
[4] = Group 2, added to verapamil SR/trandolapril 240/2 mg
[5] = Group 3, added to verapamil SR/trandolapril 240/4 mg

Structure (SMILES)	HR of developing diabetes ([1]; 25 mg, CAS group)	HR of developing diabetes ([1]; 25 mg, NCAS group)	HR of developing diabetes ([1]; addition of 12.5 mg, CAS group)	HR of developing diabetes ([1]; addition of 12.5 mg, NCAS group)	Effect of add-on medication on risk of diabetes [1]	Decrease of mean diastolic BP with the addition of HCTZ [2, 3] [mm Hg]	Decrease of mean systolic BP after the addition of HCTZ [2, 3] [mm Hg]	Decrease of mean diastolic BP with the addition of HCTZ [2, 4] [mm Hg]	Decrease of mean systolic BP after the addition of HCTZ [2, 4] [mm Hg]	Decrease of mean diastolic BP with the addition of HCTZ [2, 5] [mm Hg]	Decrease of mean systolic BP after the addition of HCTZ [2, 5] [mm Hg]	Incremental BP reduction with addition of HCTZ ([2]; each verapamil SR/trandolapril combination group, listed as HCTZ)	HR of developing diabetes ([1]; 2-mg dose, CAS group)	HR of developing diabetes ([1]; 2-mg dose, NCAS group)	HR of developing diabetes ([1]; 4-mg dose, CAS group)	HR of developing diabetes ([1]; 4-mg dose, NCAS group)
NS(=O)(=O)c1cc2c(cc1Cl)NCNS2(=O)=O [hydrochlorothiazide]	1.28	1.36	1.11	1.17	non-statistically significant increased risk of diabetes	1.1	7.1	4.2	6.5	2.3	3.2	clinically significant, incremental BP reduction				
CCOC(=O)[C@H](CCc1ccccc1)N[C@@H](C)C(=O)N1[C@H](C(=O)O)C[C@H]2CCCC[C@@H]21 [trandolapril]					appeared to confer a protective effect in the CAS group								0.86	0.99	0.77	0.98
